The test system of one assay is Balb/3T3 cells. Kind of assay: PDGF-stimulated Balb/3T3 cell proliferation. The format is cell-based. As to conditions: FIGS. 8A (1409), 8B (1560); PDGF/BB. On the procedure:
Balb/3T3 cells respond vigorously to PDGF stimulation, and are useful in vitro models for further study of PDGF-induced proliferation. Disregulated PDGF-proliferative response has been linked to a variety of diseases, including, e.g., restenosis, atherosclerosis, fibrosis, and tumor cell angiogenesis.
Balb/3T3 cells were maintained in exponential growth. The cells were removed from a flask with EDTA and plated into 96 well plates at 3000 cells/well. After 48 hours, the media was removed, the cells washed once with PBS and serum free media and the cultures allowed to rest for a 24 hour period. Inventive compounds were added to the wells containing media and Balb/3T3 cells one hour prior to incubation with PDGF/BB, added at constant 10 μM concentrations along with 1 μ Ci 3-H-thymidine dye. Cells were subsequently incubated for 18-24 hours, harvested, and incorporated thymidine assessed on a Packard Topcount to determine degree of cell proliferation. Data obtained in this assay was used to determine experimental 50% inhibition concentrations for the inventive compounds tested.

For another assay, the system named is murine splenocytes. Kind of assay: murine splenocyte proliferation co-stimulated by anti-mu and IL-4 (FIG. 11). The format is cell-based. As to conditions: Mus musculus, anti-mu / IL-4 12.5 ng/ml. On the procedure:
This example illustrates inhibitive effects of compounds nos. 1439, 1553S, 1560 and 1565 on murine splenocyte proliferation co-stimulated by anti-mu ([…]) and interleukin-4 (IL-4, 12.5 ng/ml). This in vitro assay, described above, is indicative of immune-suppressive/autoimmune treatment assay emphasizing humoral or B cell immune response. This assays are a predictive model for treatment or prevention of autoimmune diseases, such as diabetes, lupus, arthritis, and the like. The assay measures immunosuppressive activity of a drug at the B cell level. Spleens from adult mice contain immature B cells that express surface IgM. Cross-linking the surface IgM with an anti-mu antibody results in B cell proliferation. Additionally, this activation results in an increased expression of interleukin-4 receptors(IL-4R) on the surface of such cells. IL-4 acts as a growth factor for B cells and will increase the amount of proliferation induced by anti-mu.
A mixture of anti-mu and murine IL-4 is added to murine splenocytes to cause their proliferation. Mice spleens are obtained from adult mice and a single cell suspension is prepared in RPMI 1640 medium supplemented with 10% FCS. Cells (200,000) are plated into flat-bottomed wells and pre-incubated for 1-2 hours with various concentrations of inventive compound or PBS if it is a control. A mixture of anti-mu and murine is added to the wells at a final concentration of 5 μg/ml anti-mu and 12.5 ng/ml IL-4 and plates are incubated for three days. Proliferation is determined on the third day with a pulse of tritiated thymidine. The IC50 concentration of a particular drug is the concentration of drug that results in a 50% inhibition of the proliferation obtained from the positive control.

Usually IC50 stands for the concentration that gives 50% inhibition.

Turning to `Cn1cnc2c1c(=O)n(CCCCCCCC1CO1)c(=O)n2C` (centres unmarked) [Compound 1560, 1-(8,9-Oxidononyl)-3,7-dimethylxanthine], the “inhibition of Balb/3T3 proliferation” value with Balb/3T3 cells is “inhibit Balb/3T3 proliferation”. The molecule also showed a half-inhibitory concentration (IC50) in the assay on murine splenocytes of 29 µM.
